# Values of other authors as cited in US20120022018A1, “ANTI-VIRAL PROPERTIES OF ALOE VERA AND ACQUIRED IMMUNE DEFICIENCY SYNDROME (AIDS) TREATMENT” (NORTH TEXAS MEDICAL ASSOCIATES, priority 2010, published 2012).
# How the values were obtained:
# [1] = tested on: monocytic/macrophagic (M/M) cell counts; details: in vivo
# [2] = tested on: HIV-1 envelope glycoprotein; details: HIV-1 infected monocytes cultures; instead of usual GP-160, GP-120, GP-41 bands
# [3] = tested on: New Castle and paramyxoviruses; details: New Castle and paramyxoviruses in culture; altered envelope glycoproteins
substance,measurement,setting,value
Acemannan,monocytic/macrophagic (M/M) cell counts,[1],increase
same,effect on HIV-1 envelope glycoprotein,[2],induced the production of multiple molecular weights of HIV-1 envelope glycoprotein
same,effect on infectivity of virions,[3],rendered the virions incapable of infecting susceptible target cell lines as well as animals
